According to paper PMC6306373, “The development of a GPR44 targeting radioligand [^11C]AZ12204657 for in vivo assessment of beta cell mass” (EJNMMI Research, 2018):

Target: T1, GPR44 (prostaglandin D2 receptor 2, DP2, CRTh2) (Homo sapiens, UniProt Q9Y5Y4)
T1 construct: gene PTGDR2; human recombinant GPR44 co-expressed with Gα16 in HEK293 cell membranes
T1 sequence (Q9Y5Y4 1-395): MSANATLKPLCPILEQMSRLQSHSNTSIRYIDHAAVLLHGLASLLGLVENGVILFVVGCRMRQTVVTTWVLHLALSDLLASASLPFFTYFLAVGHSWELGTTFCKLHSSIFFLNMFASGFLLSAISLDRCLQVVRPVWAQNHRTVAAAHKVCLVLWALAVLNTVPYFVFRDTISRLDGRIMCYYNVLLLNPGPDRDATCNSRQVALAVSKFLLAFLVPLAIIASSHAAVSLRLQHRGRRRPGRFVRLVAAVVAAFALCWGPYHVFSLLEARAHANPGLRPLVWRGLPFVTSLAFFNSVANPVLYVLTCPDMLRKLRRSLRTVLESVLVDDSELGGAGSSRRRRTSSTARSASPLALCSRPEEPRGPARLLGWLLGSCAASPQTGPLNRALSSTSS
Experiment: [3H]PGD2 displacement SPA on HEK293 membranes; also displacement of [[…]-3H-phenoxy]-AZ12204657 by filtration (IC50 […])
Format: binding

C[C@H](Oc1ccc(Cl)cc1Oc1ccc(S(C)(=O)=O)cc1Cl)C(=O)O [AZ12204657, (S)-2-(4-chloro-2-[2-chloro-4-(methylsulfonyl)phenoxy]phenoxy) propanoic acid]
IC50: 2.5 nM
